The record followed here is patent US20260102383A1, “LPAR1 Inhibitors” (AbbVie Inc., priority 2024, published 2026).

SMILES strings stand for the structures.

The target in this experiment is T1, human LPAR1 (Homo sapiens, UniProt Q92633).
T1 construct: host or cells: TangoEDG2-bla U2OS cells
T1 sequence (Q92633 whole entry): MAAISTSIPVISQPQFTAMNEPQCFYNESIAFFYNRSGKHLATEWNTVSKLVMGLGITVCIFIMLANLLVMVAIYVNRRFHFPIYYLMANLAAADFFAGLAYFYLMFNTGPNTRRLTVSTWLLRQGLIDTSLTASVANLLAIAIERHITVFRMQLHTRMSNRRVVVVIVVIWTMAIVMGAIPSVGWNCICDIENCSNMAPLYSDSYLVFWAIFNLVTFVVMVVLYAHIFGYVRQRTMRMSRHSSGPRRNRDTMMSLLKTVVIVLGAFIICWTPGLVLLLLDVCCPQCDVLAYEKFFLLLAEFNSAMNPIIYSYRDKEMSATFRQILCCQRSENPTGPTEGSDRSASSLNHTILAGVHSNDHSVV
Description: Arrestin assay (Arrestin Reporter EDG2-bla U2OS), inhibition of LPA-stimulated signal. The experiment is classed as cell-based. The conditions noted are these: TangoEDG2-bla U2OS cells expressing human LPAR1; 0.25 μM LPA; read-out: Arrestin Reporter EDG2-bla U2OS Human Merged IC50. The procedure: The inhibitory activity of compounds 15, 62, 77, 84 and 169 against LPAR1 was measured using an Arrestin assay in U2OS cells expressing human LPAR1.
FreeStyle media was warmed in a 37° C. water bath. Cryo-preserved vial(s) of TangoEDG2-bla U2OS cells were rapidly thawed in a 37° C. water bath. The thawed cells were added to FreeStyle media and cells were pelleted at 300×g for 5 minutes. The supernatant was aspirated, and cells were resuspended in FreeStyle media. Cell density was adjusted to 0.25×10^6 cells/mL. Cells (1×10^4 in 40 μL) were added to each well of Greiner 384 well black cell plate(s). Cell plate(s) were placed in a humidified 37° C./5% CO2 incubator for 18-20 hours. Dilutions of test compound were prepared at 6× final concentration; 12-point, 3-fold dilutions using HH Buffer (1×HBSS plus 20 mM HEPES). The 6× test compound was then added to the cell plate(s) at 10 μL/well. The final concentration ranged from 10 μM to 0.00006 μM. Cell plate(s) were incubated in a humidified 37° C./5% CO2 incubator for 1 hour. During the incubation, 6×LPA was prepared at 1.5 μM in 0.1% BSA HH Buffer. After the 1-hour incubation of test compound with cells, the LPA was added to the cell plate(s) at 10 μL/well (final LPA concentration of 0.25 μM). Cell plate(s) were returned to a humidified 37° C./5% CO2 incubator for 3 hours. The Development solution was made up per the LiveBLAzerFRET B/G kit protocol. The Development solution was added to the cell plate(s) at 10 μL/well. Cell plates were incubated in the dark at room temperature for 2 hours. Plate(s) were read on an Envision Plate Reader (Perkin Elmer) to read fluorescence; excitation at 409 nm with emission at 460 nm and 530 nm. Raw Data for analysis is the ratio of emission at 460 nm divided by emission 530 nm. The formula used to determine % Inhibition is as follows (1−(Raw Data−Low Average)/(High Average−Low Average))*100. Percent Inhibition was plotted to determine IC50 value with GraphPad Prism 9.5.0 software using Variable slope 4-parameter curve fit analysis.
Additional compounds of the present disclosure were synthesized in a manner similar to the compounds described above and understood by a person of ordinary skill in the art. The inhibitory activity of the compounds of the present disclosure against LPAR1 was measured using the above-referenced Arrestin Assay protocol.
For `CC(C)c1ccnn1C1(C(=O)Nc2ccc(Cl)cc2OC(F)F)CCN(CC2(C(=O)O)CCOCC2)CC1` [Compound 3, 4-[[4-[[4-chloro-2-(difluoromethoxy)phenyl]carbamoyl]-4-(5-isopropylpyrazol-1-yl)-1-piperidyl]methyl]tetrahydropyran-4-carboxylic acid], the IC50 was determined as 14.7 nM. With `CC(C)c1ccnn1C1(C(=O)Nc2ccc(Cl)cc2OC(F)F)CCN(CC2(C(=O)O)CCN(C(=O)OC(C)(C)C)CC2)CC1` [Compound 4, 1-tert-butoxycarbonyl-4-[[4-[[4-chloro-2-(difluoromethoxy)phenyl]carbamoyl]-4-(5-isopropylpyrazol-1-yl)-1-piperidyl]methyl] piperidine-4-carboxylic acid], the IC50 stood at 22.8 nM. Consider `CC(=O)N1CCC(CN2CCC(C(=O)Nc3ccc(Cl)cc3OC(F)F)(n3nccc3C(C)C)CC2)(C(=O)O)CC1` [Compound 5, 1-acetyl-4-[[4-[[4-chloro-2-(difluoromethoxy)phenyl]carbamoyl]-4-(5-isopropylpyrazol-1-yl)-1-piperidyl]methyl]piperidine-4-carboxylic acid], for which the IC50 came to 87.3 nM. Take `CCOC(=O)N1CCC(CN2CCC(C(=O)Nc3ccc(Cl)cc3OC(F)F)(n3nccc3C(C)C)CC2)(C(=O)O)CC1` [Compound 6, 4-[[4-[[4-chloro-2-(difluoromethoxy)phenyl]carbamoyl]-4-(5-isopropylpyrazol-1-yl)-1-piperidyl]methyl]-1-ethoxycarbonyl-piperidine-4-carboxylic acid]: the IC50 amounted to 24.7 nM. As to `C=CC(=O)N1CCC(CN2CCC(C(=O)Nc3ccc(Cl)cc3OC(F)F)(n3nccc3C(C)C)CC2)(C(=O)O)CC1` [Compound 7, 4-[[4-[[4-chloro-2-(difluoromethoxy)phenyl]carbamoyl]-4-(5-isopropylpyrazol-1-yl)-1-piperidyl]methyl]-1-prop-2-enoyl-piperidine-4-carboxylic acid], the IC50 was determined as 50.8 nM. `CC(C)c1ccnn1C1(C(=O)Nc2ccc(Cl)cc2OC(F)F)CCN(CC2(C(=O)O)CCN(C(=O)OCc3ccccc3)CC2)CC1` [Compound 8, 1-benzyloxycarbonyl-4-[[4-[[4-chloro-2-(difluoromethoxy)phenyl]carbamoyl]-4-(5-isopropylpyrazol-1-yl)-1-piperidyl]methyl]piperidine-4-carboxylic acid]: the IC50 came to 3.31 nM. With `COC(=O)CC(=O)N1CCC(CN2CCC(C(=O)Nc3ccc(Cl)cc3OC(F)F)(n3nccc3C(C)C)CC2)(C(=O)O)CC1` [Compound 9, 4-[[4-[[4-chloro-2-(difluoromethoxy)phenyl]carbamoyl]-4-(5-isopropylpyrazol-1-yl)-1-piperidyl]methyl]-1-(3-methoxy-3-oxo-propanoyl)piperidine-4-carboxylic acid], the IC50 is 128 nM. Take `CC(C)c1ccnn1C1(C(=O)Nc2ccc(Cl)cc2OC(F)F)CCN(CC2(C(=O)O)CCN(C(=O)Oc3ccc(F)cc3)CC2)CC1` [Compound 10, 4-[[4-[[4-chloro-2-(difluoromethoxy)phenyl]carbamoyl]-4-(5-isopropylpyrazol-1-yl)-1-piperidyl]methyl]-1-(4-fluorophenoxy)carbonyl-piperidine-4-carboxylic acid]: the IC50 came to 7.53 nM.

For the molecule `CC(C)c1ccnn1C1(C(=O)Nc2ccc(Cl)cc2OC(F)F)CCN(CC(C(=O)O)C2CCOCC2)CC1` (centres unmarked) [Compound 11, 3-[4-[[4-chloro-2-(difluoromethoxy)phenyl]carbamoyl]-4-(5-isopropylpyrazol-1-yl)-1-piperidyl]-2-tetrahydropyran-4-yl-propanoic acid], the half-maximal inhibitory concentration (IC50) was found to be 52.6 nM. Regarding `CC(C)c1ccnn1C1(C(=O)Nc2ccc(Cl)cc2OC(F)F)CCN(CC2(C(=O)O)CCCC2)CC1` [Compound 12, 1-[[4-[[4-chloro-2-(difluoromethoxy)phenyl]carbamoyl]-4-(5-isopropylpyrazol-1-yl)-1-piperidyl]methyl] cyclopentanecarboxylic acid], the IC50 was determined as 11.4 nM. For `CC(C)c1ccnn1C1(C(=O)Nc2ccc(Cl)cc2OC(F)F)CCN(CC2(C(=O)O)CCCO2)CC1` (centres unmarked) [Compound 13, 2-[[4-[[4-chloro-2-(difluoromethoxy)phenyl]carbamoyl]-4-(5-isopropylpyrazol-1-yl)-1-piperidyl]methyl] tetrahydrofuran-2-carboxylic acid], the IC50 stood at 11.2 nM. Take `CC(C)c1ccnn1C1(C(=O)Nc2ccc(Cl)cc2OC(F)F)CCN(CC2(C(=O)O)CCOC2)CC1` (centres unmarked) [Compound 16, 3-[[4-[[4-chloro-2-(difluoromethoxy)phenyl]carbamoyl]-4-(5-isopropylpyrazol-1-yl)-1-piperidyl]methyl] tetrahydrofuran-3-carboxylic acid]: the IC50 was found to be 29.8 nM.

For `CC(C)c1ccnn1C1(C(=O)Nc2ccc(Cl)cc2OC(F)F)CCN(CC(C(=O)O)c2cccnc2)CC1` (centres unmarked) [Compound 17, 3-[4-[[4-chloro-2-(difluoromethoxy)phenyl]carbamoyl]-4-(5-isopropylpyrazol-1-yl)-1-piperidyl]-2-(3-pyridyl)propanoic acid], the concentration for half-maximal inhibition (IC50) stood at 14.5 nM. Regarding `CC(C)c1ccnn1C1(C(=O)Nc2ccc(Cl)cc2OC(F)F)CCN(CC2(C(=O)O)CCN(c3cnccn3)CC2)CC1` [Compound 18, 4-[[4-[[4-chloro-2-(difluoromethoxy)phenyl]carbamoyl]-4-(5-isopropylpyrazol-1-yl)-1-piperidyl]methyl]-1-pyrazin-2-yl-piperidine-4-carboxylic acid], the IC50 is 11 nM. Consider `COc1ccc(C(CN2CCC(C(=O)Nc3ccc(Cl)cc3OC(F)F)(n3nccc3C(C)C)CC2)C(=O)O)cc1` (centres unmarked) [Compound 19, 3-[4-[[4-chloro-2-(difluoromethoxy)phenyl]carbamoyl]-4-(5-isopropylpyrazol-1-yl)-1-piperidyl]-2-(4-methoxyphenyl) propanoic acid], for which the IC50 came out at 9.56 nM. With `CC(C)c1ccnn1C1(C(=O)Nc2ccc(Cl)cc2OC(F)F)CCN(C[C@@]2(C(=O)O)CCCO2)CC1` [Compound 20, (2R)-2-[[4-[[4-chloro-2-(difluoromethoxy)phenyl]carbamoyl]-4-(5-isopropylpyrazol-1-yl)-1-piperidyl]methyl] tetrahydrofuran-2-carboxylic acid], the IC50 was 28.8 nM. With `CC(C)c1ccnn1C1(C(=O)Nc2ccc(Cl)cc2OC(F)F)CCN(C[C@]2(C(=O)O)CCCO2)CC1` [Compound 21, (2S)-2-[[4-[[4-chloro-2-(difluoromethoxy)phenyl]carbamoyl]-4-(5-isopropylpyrazol-1-yl)-1-piperidyl]methyl] tetrabydrofuran-2-carboxylic acid], the IC50 came out at 14.6 nM.

In the case of `COc1cccc(C(CN2CCC(C(=O)Nc3ccc(Cl)cc3OC(F)F)(n3nccc3C(C)C)CC2)C(=O)O)c1` (centres unmarked) [Compound 22, 3-[4-[[4-chloro-2-(difluoromethoxy)phenyl]carbamoyl]-4-(5-isopropylpyrazol-1-yl)-1-piperidyl]-2-(3-methoxyphenyl)propanoic acid], the IC50 was 10.1 nM.

Take `CC(C)c1ccnn1C1(C(=O)Nc2ccc(Cl)cc2OC(F)F)CCN(C[C@@]2(C(=O)O)CCOC2)CC1` [Compound 24, (3S)-3-[[4-[[4-chloro-2-(difluoromethoxy)phenyl]carbamoyl]-4-(5-isopropylpyrazol-1-yl)-1-piperidyl]methyl] tetrabydrofuran-3-carboxylic acid]: the IC50 is 24.7 nM. In the case of `CC(C)c1ccnn1C1(C(=O)Nc2ccc(Cl)cc2OC(F)F)CCN(C[C@H](C(=O)O)c2cccnc2)CC1` [Compound 25, (2R)-3-[4-[[4-chloro-2-(difluoromethoxy)phenyl]carbamoyl]-4-(5-isopropylpyrazol-1-yl)-1-piperidyl]-2-(3-pyridyl)propanoic acid] it was 28 nM; in that of `CC(C)c1ccnn1C1(C(=O)Nc2ccc(Cl)cc2OC(F)F)CCN(C[C@@H](C(=O)O)c2cccnc2)CC1` [Compound 26, (2S)-3-[4-[[4-chloro-2-(difluoromethoxy)phenyl]carbamoyl]-4-(5-isopropylpyrazol-1-yl)-1-piperidyl]-2-(3-pyridyl)propanoic acid], 24.5 nM; in that of `CC(C)c1ccnn1C1(C(=O)Nc2ccc(Cl)cc2OC(F)F)CCN(CC2(C(=O)O)CCC(=O)CC2)CC1` [Compound 27, 1-[[4-[[4-chloro-2-(difluoromethoxy)phenyl]carbamoyl]-4-(5-isopropylpyrazol-1-yl)-1-piperidyl]methyl]-4-oxo-cyclohexanecarboxylic acid], 14.2 nM. As to `COc1ccc([C@H](CN2CCC(C(=O)Nc3ccc(Cl)cc3OC(F)F)(n3nccc3C(C)C)CC2)C(=O)O)cc1` [Compound 28], the IC50 is 4.82 nM.

In general, IC50 refers to the midpoint of a concentration-inhibition curve.
